35 compounds from patent US20250145633A1, “SUBSTITUTED FURANOPYRIMIDINE COMPOUNDS AS PDE1 INHIBITORS” (Dart NeuroScience, LLC, priority 2017, published 2025) can be followed below.

SMILES strings stand for the structures. A value given as a limit tells only on which side of the number the result lay.

The target in the first assay is human PDE1B enzyme (Homo sapiens (Human), UniProt Q01064). Nature of the assay: IMAP TR-FRET PDE1B enzymatic assay. The following applies: negative log of half-maximal molar inhibitory concentration; 200 nM FAM-cAMP; values given as bins. The class given is biochemical. In a few lines:
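Full-length GST-tagged human PDE1B (250 pg/well) in IMAP BSA buffer with 10 U/ml calmodulin and 2.5 mM CaCl2; compound pre-incubated 5 min at room temperature, then 200 nM (final) FAM-cAMP for 30 min. IMAP binding reagent/Tb added, 1 h; TR-FRET 520/490 ratio read. IC50 from sigmoidal dose-response fit.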
On to `Cc1oc2ncnc(NC3(C)CC3)c2c1C(=O)N1CCOC(c2ccc(F)cc2)C1` (centres unmarked) [Example 122, 5-[2-(4-Fluorophenyl)morpholine-4-carbonyl]-6-methyl-N-(1-methylcyclopropyl)furo[2,3-d]pyrimidin-4-amine], for which the “PDE1b (pIC50)” value is on record as above 8.
On the same count and under the same terms, as for `Cc1oc2ncnc(NC3(C)CC3)c2c1C(=O)N1CCC(c2ccc(C(F)F)cc2)C1` (centres unmarked) [Example 131, 5-{3-[4-(Difluoromethyl)phenyl]pyrrolidine-1-carbonyl}-6-methyl-N-(1-methylcyclopropyl)furo[2,3-d]pyrimidin-4-amine], the figure is above 8; as for `Cc1oc2ncnc(NC3(C)CC3)c2c1C(=O)N1CCC(F)(c2ccccc2)C1` (centres unmarked) [Example 132, 5-(3-Fluoro-3-phenylpyrrolidine-1-carbonyl)-6-methyl-N-(1-methylcyclopropyl)furo[2,3-d]pyrimidin-4-amine], above 8.
The same measure, in the same setting: as for `Cc1oc2ncnc(NC3(C)CC3)c2c1C(=O)N1CCC(F)(c2ccc(F)cc2)C1` (centres unmarked) [Example 133, 5-[3-Fluoro-3-(4-fluorophenyl)pyrrolidine-1-carbonyl]-6-methyl-N-(1-methylcyclopropyl)furo[2,3-d]pyrimidin-4-amine], the figure is above 8; as for `Cc1oc2ncnc(NC3(C)CC3)c2c1C(=O)NC(C)(C)CCO` [Example 135, N-(4-Hydroxy-2-methylbutan-2-yl)-6-methyl-4-[(1-methylcyclopropyl)amino]furo[2,3-d]pyrimidine-5-carboxamide], above 8.

Still in this assay, the particulars now being: negative log of half-maximal molar inhibitory concentration; 200 nM FAM-cAMP; values given as bins; read-out: PDE1b (pIC50) (converted).
Consider `Cc1oc2ncnc(NC3(C)CC3)c2c1C(=O)NC1(C)CCOC1` (centres unmarked) [Example 107, 6-Methyl-4-[(1-methylcyclopropyl)amino]-N-(3-methyloxolan-3-yl)furo[2,3-d]pyrimidine-5-carboxamide], for which the IC50 is 10 to 100 nM.
With `Cc1oc2ncnc(NC3(C)CC3)c2c1C(=O)NC1CCOCC1` [Example 108, 6-Methyl-4-[(1-methylcyclopropyl)amino]-N-(oxan-4-yl)furo[2,3-d]pyrimidine-5-carboxamide], the IC50 is 10 to 100 nM.
With `Cc1oc2ncnc(NC3(C)CC3)c2c1C(=O)NC1(C)CCOCC1` [Example 109, 6-Methyl-4-[(1-methylcyclopropyl)amino]-N-(4-methyloxan-4-yl)furo[2,3-d]pyrimidine-5-carboxamide], the IC50 is 10 to 100 nM.
Consider `Cc1oc2ncnc(NC3(C)CC3)c2c1C(=O)NC1CCOC(C)(C)C1` (centres unmarked) [Example 110, N-(2,2-Dimethyloxan-4-yl)-6-methyl-4-[(1-methylcyclopropyl)amino]furo[2,3-d]pyrimidine-5-carboxamide], for which the IC50 was 10 to 100 nM.
Still for that read-out and setting: under `Cc1oc2ncnc(NC3(C)CC3)c2c1C(=O)NCc1cccn1C` [Example 111, 6-Methyl-N-[(1-methyl-1H-pyrrol-2-yl)methyl]-4-[(1-methylcyclopropyl)amino]furo[2,3-d]pyrimidine-5-carboxamide] stands 10 to 100 nM; under `Cc1nc(CNC(=O)c2c(C)oc3ncnc(NC4(C)CC4)c23)c(C)o1` [Example 112, N-[(Dimethyl-1,3-oxazol-4-yl)methyl]-6-methyl-4-[(1-methylcyclopropyl)amino]furo[2,3-d]pyrimidine-5-carboxamide], 10 to 100 nM; under `Cc1cc(CNC(=O)c2c(C)oc3ncnc(NC4(C)CC4)c23)no1` [Example 113, 6-Methyl-N-[(5-methyl-1,2-oxazol-3-yl)methyl]-4-[(1-methylcyclopropyl)amino]furo[2,3-d]pyrimidine-5-carboxamide], 10 to 100 nM.
As for `Cc1oc2ncnc(NC3(C)CC3)c2c1C(=O)N[C@H]1[C@@H]2COC[C@@H]21` [Example 114, 6-Methyl-4-[(1-methylcyclopropyl)amino]-N-[(1R,5S,6R)-3-oxabicyclo[3.1.0]hexan-6-yl]furo[2,3-d]pyrimidine-5-carboxamide], the IC50 is 10 to 100 nM.
Same read-out and setting: as for `Cc1oc2ncnc(NC3(C)CC3)c2c1C(=O)NCc1cncn1C` [Example 115, 6-Methyl-N-[(1-methyl-1H-imidazol-5-yl)methyl]-4-[(1-methylcyclopropyl)amino]furo[2,3-d]pyrimidine-5-carboxamide], the figure is 100 to 1000 nM; as for `Cc1oc2ncnc(NC3(C)CC3)c2c1C(=O)NCc1cn(C)cn1` [Example 116, 6-Methyl-N-[(1-methyl-1H-imidazol-4-yl)methyl]-4-[(1-methylcyclopropyl)amino]furo[2,3-d]pyrimidine-5-carboxamide], 10 to 100 nM; as for `Cc1oc2ncnc(NC3(C)CC3)c2c1C(=O)N1CCOCC1` [Example 117, 6-Methyl-N-(1-methylcyclopropyl)-5-(morpholine-4-carbonyl)furo[2,3-d]pyrimidin-4-amine], 100 to 1000 nM.
Same read-out and setting: under `Cc1oc2ncnc(NC3(C)CC3)c2c1C(=O)N1CCOC(c2ccccn2)C1` (centres unmarked) [Example 118, 6-Methyl-N-(1-methylcyclopropyl)-5-[2-(pyridin-2-yl)morpholine-4-carbonyl]furo[2,3-d]pyrimidin-4-amine] stands 10 to 100 nM; under `Cc1oc2ncnc(NC3(C)CC3)c2c1C(=O)N1CCOC(c2ccncc2)C1` (centres unmarked) [Example 119, 6-Methyl-N-(1-methylcyclopropyl)-5-[2-(pyridin-4-yl)morpholine-4-carbonyl]furo[2,3-d]pyrimidin-4-amine], 100 to 1000 nM; under `Cc1oc2ncnc(NC3(C)CC3)c2c1C(=O)N1CCOC(c2cccnc2)C1` (centres unmarked) [Example 120, 6-Methyl-N-(1-methylcyclopropyl)-5-[2-(pyridin-3-yl)morpholine-4-carbonyl]furo[2,3-d]pyrimidin-4-amine], 100 to 1000 nM.
On the same count and under the same terms, under `Cc1oc2ncnc(NC3(C)CC3)c2c1C(=O)N1CCOC(c2cnn(C)c2)C1` (centres unmarked) [Example 121, 6-Methyl-5-[2-(1-methyl-1H-pyrazol-4-yl)morpholine-4-carbonyl]-N-(1-methylcyclopropyl)furo[2,3-d]pyrimidin-4-amine] stands 100 to 1000 nM; under `COc1ccc(C2CN(C(=O)c3c(C)oc4ncnc(NC5(C)CC5)c34)CCO2)cc1` (centres unmarked) [Example 123, 5-[2-(4-Methoxyphenyl)morpholine-4-carbonyl]-6-methyl-N-(1-methylcyclopropyl)furo[2,3-d]pyrimidin-4-amine], 100 to 1000 nM; under `Cc1oc2ncnc(NC3(C)CC3)c2c1C(=O)NC1CC1` [Example 124, N-Cyclopropyl-6-methyl-4-[(1-methylcyclopropyl)amino]furo[2,3-d]pyrimidine-5-carboxamide], 10 to 100 nM.
With `Cc1oc2ncnc(NC3(C)CC3)c2c1C(=O)NCCF` [Example 125, N-(2-Fluoroethyl)-6-methyl-4-[(1-methylcyclopropyl)amino]furo[2,3-d]pyrimidine-5-carboxamide], the IC50 was 10 to 100 nM.
Same read-out and setting: under `Cc1oc2ncnc(NC3(C)CC3)c2c1C(=O)N[C@H]1C[C@H](F)C1` [Example 126, 6-Methyl-4-[(1-methylcyclopropyl)amino]-N-[(1R,3R)-3-fluorocyclobutyl]furo[2,3-d]pyrimidine-5-carboxamide] stands 10 to 100 nM.
Take `Cc1oc2ncnc(NC3(C)CC3)c2c1C(=O)N[C@H]1C[C@@H](F)C1` [Example 127, 6-Methyl-4-[(1-methylcyclopropyl)amino]-N-[(1S,3S)-3-fluorocyclobutyl]furo[2,3-d]pyrimidine-5-carboxamide]: the IC50 was 100 to 1000 nM.
Take `Cc1oc2ncnc(NC3(C)CC3)c2c1C(=O)NC1CC(F)(F)C1` [Example 128, N-(3,3-Difluorocyclobutyl)-6-methyl-4-[(1-methylcyclopropyl)amino]furo[2,3-d]pyrimidine-5-carboxamide]: the IC50 is 100 to 1000 nM.
As to `Cc1oc2ncnc(NC3(C)CC3)c2c1C(=O)NC1(C2CC2)CCOCC1` [Example 129, N-(4-Cyclopropyloxan-4-yl)-6-methyl-4-[(1-methylcyclopropyl)amino]furo[2,3-d]pyrimidine-5-carboxamide], the IC50 is 10 to 100 nM.
Same read-out and setting: as for `Cc1oc2ncnc(NC3(C)CC3)c2c1C(=O)NC1(c2ccccc2)COC1` [Example 130, 6-Methyl-4-[(1-methylcyclopropyl)amino]-N-(3-phenyloxetan-3-yl)furo[2,3-d]pyrimidine-5-carboxamide], the figure is 10 to 100 nM; as for `Cc1oc2ncnc(NC3(C)CC3)c2c1C(=O)NCCO` [Example 134, N-(2-Hydroxyethyl)-6-methyl-4-[(1-methylcyclopropyl)amino]furo[2,3-d]pyrimidine-5-carboxamide], 100 to 1000 nM.
Regarding `Cc1oc2ncnc(NC3(C)CC3)c2c1C(=O)NC(C)C` [Example 136, 6-Methyl-4-[(1-methylcyclopropyl)amino]-N-(propan-2-yl)furo[2,3-d]pyrimidine-5-carboxamide], the IC50 was 10 to 100 nM.
Still for that read-out and setting: as for `Cc1oc2ncnc(NC3(C)CC3)c2c1C(=O)NCC(C)C` [Example 137, 6-Methyl-4-[(1-methylcyclopropyl)amino]-N-(2-methylpropyl)furo[2,3-d]pyrimidine-5-carboxamide], the figure is 10 to 100 nM; as for `Cc1oc2ncnc(NC3(C)CC3)c2c1C(=O)NC(C)(C)C` [Example 138, N-tert-Butyl-6-methyl-4-[(1-methylcyclopropyl)amino]furo[2,3-d]pyrimidine-5-carboxamide], 10 to 100 nM.
Regarding `Cc1oc2ncnc(NC3(C)CC3)c2c1C(=O)NCC1CCOCC1` [Example 139, 6-Methyl-4-[(1-methylcyclopropyl)amino]-N-(oxan-4-ylmethyl)furo[2,3-d]pyrimidine-5-carboxamide], the IC50 is 10 to 100 nM.
`CCC1(NC(=O)c2c(C)oc3ncnc(NC4(C)CC4)c23)CCOCC1` [Example 140, N-(4-Ethyloxan-4-yl)-6-methyl-4-[(1-methylcyclopropyl)amino]furo[2,3-d]pyrimidine-5-carboxamide]: the IC50 was 10 to 100 nM.
Turning to `Cc1oc2ncnc(NC3(C)CC3)c2c1C(=O)Nc1cnn(C)c1` [Example 141, 6-Methyl-N-(1-methyl-1H-pyrazol-4-yl)-4-[(1-methylcyclopropyl)amino]furo[2,3-d]pyrimidine-5-carboxamide], the IC50 was 10 to 100 nM.
